Assay results published in ChEMBL document CHEMBL1130183, “Synthesis of a novel sialic acid derivative (sialylphospholipid) as an antirotaviral agent” (J Med Chem, 1997).

How the values were obtained:
Type in all cases: functional, organism-based
Rotavirus [1] = assay: Inhibitory concentration against human rotavirus MO strain; No inhibition
Simian rotavirus [2] = assay: Inhibitory concentration against Simian rotavirus SA-11 strain; No inhibition
Simian rotavirus [3] = assay: Inhibitory concentration against Simian rotavirus SA-11 strain; conditions: Rotavirus A
Rotavirus [4] = assay: Inhibitory concentration against human rotavirus MO strain

Row | IC50 (Simian rotavirus [3]) [µM] | IC50 (Rotavirus [4]) [µM] | Compound | IC50 (Rotavirus [1]) | IC50 (Simian rotavirus [2])
1 | – | – | CCCCCCCCCCCCCCCCCC(=O)OCC(COP(=O)([O-])OCC[N+](C)(C)C)OC(=O)CCCCCCCCCCCCCCCCC (stereo not given) | Not Active | Not Active
2 | 4280 | – | CC(=O)NC1C(O)CC(O)(C(=O)O)OC1C(O)C(O)CO (stereo not given) | – | –
3 | 4.35 | 16.1 | CCCCCCCCCCCCCCCCCC(=O)OCC(COP(=O)(O)OCCCCCCCCOC1(C(=O)O)CC(O)C(NC(C)=O)C([C@H](O)[C@H](O)CO)O1)OC(=O)CCCCCCCCCCCCCCCCC (stereo not given in full) | – | –
